Test results as given in ChEMBL document CHEMBL3526034 (Drug Metab Dispos, 2013).

Key:
[1] = molecular target: T1, Broad substrate specificity ATP-binding cassette transporter ABCG2 (Homo sapiens, UniProt Q9UNQ0); experiment: Inhibition of BCRP (unknown origin) expressed in MDCK2 cells assessed as basolateral to apical transport of [14C]cimetidine at 30 uM after 90 mins by liquid scintillation counting analysis; type: ADME, cell-based; settings: mdck-ii, 1.5 h
T1 sequence (Q9UNQ0 whole entry): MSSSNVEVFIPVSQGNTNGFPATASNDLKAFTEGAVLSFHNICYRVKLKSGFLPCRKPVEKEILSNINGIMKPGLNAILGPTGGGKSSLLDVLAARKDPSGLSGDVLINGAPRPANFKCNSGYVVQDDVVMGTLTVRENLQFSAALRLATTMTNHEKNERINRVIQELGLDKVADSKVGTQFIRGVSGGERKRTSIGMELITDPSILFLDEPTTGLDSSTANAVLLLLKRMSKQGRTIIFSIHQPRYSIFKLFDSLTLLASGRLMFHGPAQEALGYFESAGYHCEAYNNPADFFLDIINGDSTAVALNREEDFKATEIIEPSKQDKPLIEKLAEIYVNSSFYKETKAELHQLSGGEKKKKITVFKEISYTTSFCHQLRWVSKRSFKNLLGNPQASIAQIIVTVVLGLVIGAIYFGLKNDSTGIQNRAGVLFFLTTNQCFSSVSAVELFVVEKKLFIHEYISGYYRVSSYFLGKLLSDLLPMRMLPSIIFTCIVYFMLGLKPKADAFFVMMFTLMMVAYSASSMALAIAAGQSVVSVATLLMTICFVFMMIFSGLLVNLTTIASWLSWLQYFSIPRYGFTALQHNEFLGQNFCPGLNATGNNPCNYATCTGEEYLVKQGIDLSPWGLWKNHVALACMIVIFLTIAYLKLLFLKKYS

Cytochrome P450 2A6 = Cytochrome P450 2A6 (Homo sapiens, UniProt P11509); experiment: Inhibition of CYP2A6 in human liver microsomes using coumarin as substrate preincubated for 20 mins with substrate prior to initiation of reaction with NADPH by HPLC analysis; type: ADME
Sequence of Cytochrome P450 2A6 (P11509 whole entry): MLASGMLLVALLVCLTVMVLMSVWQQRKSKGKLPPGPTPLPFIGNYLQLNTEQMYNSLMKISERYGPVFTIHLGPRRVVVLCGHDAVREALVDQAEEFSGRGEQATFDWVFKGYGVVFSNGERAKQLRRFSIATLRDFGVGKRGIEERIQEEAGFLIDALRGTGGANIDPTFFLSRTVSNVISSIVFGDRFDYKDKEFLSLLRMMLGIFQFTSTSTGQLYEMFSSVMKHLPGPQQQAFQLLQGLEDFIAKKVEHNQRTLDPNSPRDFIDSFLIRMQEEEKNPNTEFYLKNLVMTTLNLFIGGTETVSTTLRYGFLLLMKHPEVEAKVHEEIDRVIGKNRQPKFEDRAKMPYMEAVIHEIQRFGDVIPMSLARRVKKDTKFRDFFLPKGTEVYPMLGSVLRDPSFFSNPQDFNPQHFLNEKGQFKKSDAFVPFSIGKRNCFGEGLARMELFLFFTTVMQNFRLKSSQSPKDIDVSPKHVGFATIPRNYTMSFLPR

Cytochrome P450 3A4 [2] = molecular target: T2, Cytochrome P450 3A4 (Homo sapiens, UniProt P08684); experiment: Drug metabolism in supersomes expressing human recombinant CYP3A4 assessed as for NADPH-fortified enzyme-mediated metabolite M1 ((4R,12aS)-7-hydroxy-4-methyl-6,8-dioxo-3,4,6,8,12,12a-hexahydro-2H-[1,3]oxazino[3,2-d]pyrido[1,2-a]pyrazine-9-carboxamide) formation at 5 uM after 120 mins by radio-HPLC analysis; type: ADME
T2 sequence (P08684 whole entry): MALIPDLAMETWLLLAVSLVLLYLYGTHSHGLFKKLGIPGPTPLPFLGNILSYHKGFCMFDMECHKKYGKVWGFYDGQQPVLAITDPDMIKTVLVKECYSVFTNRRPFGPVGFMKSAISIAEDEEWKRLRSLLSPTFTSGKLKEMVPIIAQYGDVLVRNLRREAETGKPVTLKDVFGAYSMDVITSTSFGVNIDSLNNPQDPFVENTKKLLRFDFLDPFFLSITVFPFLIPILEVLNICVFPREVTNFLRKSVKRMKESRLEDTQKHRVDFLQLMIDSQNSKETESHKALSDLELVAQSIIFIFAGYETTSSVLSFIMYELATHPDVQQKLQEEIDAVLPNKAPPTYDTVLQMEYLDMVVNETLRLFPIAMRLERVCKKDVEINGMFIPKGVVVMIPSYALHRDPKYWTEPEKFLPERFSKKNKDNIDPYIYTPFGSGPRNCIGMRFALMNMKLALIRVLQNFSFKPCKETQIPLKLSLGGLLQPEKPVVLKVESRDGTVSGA

[3] = molecular target: ATP-dependent translocase ABCB1 (Homo sapiens, UniProt P08183); experiment: Inhibition of human MDR1; type: ADME
Sequence of ATP-dependent translocase ABCB1 (P08183 whole entry): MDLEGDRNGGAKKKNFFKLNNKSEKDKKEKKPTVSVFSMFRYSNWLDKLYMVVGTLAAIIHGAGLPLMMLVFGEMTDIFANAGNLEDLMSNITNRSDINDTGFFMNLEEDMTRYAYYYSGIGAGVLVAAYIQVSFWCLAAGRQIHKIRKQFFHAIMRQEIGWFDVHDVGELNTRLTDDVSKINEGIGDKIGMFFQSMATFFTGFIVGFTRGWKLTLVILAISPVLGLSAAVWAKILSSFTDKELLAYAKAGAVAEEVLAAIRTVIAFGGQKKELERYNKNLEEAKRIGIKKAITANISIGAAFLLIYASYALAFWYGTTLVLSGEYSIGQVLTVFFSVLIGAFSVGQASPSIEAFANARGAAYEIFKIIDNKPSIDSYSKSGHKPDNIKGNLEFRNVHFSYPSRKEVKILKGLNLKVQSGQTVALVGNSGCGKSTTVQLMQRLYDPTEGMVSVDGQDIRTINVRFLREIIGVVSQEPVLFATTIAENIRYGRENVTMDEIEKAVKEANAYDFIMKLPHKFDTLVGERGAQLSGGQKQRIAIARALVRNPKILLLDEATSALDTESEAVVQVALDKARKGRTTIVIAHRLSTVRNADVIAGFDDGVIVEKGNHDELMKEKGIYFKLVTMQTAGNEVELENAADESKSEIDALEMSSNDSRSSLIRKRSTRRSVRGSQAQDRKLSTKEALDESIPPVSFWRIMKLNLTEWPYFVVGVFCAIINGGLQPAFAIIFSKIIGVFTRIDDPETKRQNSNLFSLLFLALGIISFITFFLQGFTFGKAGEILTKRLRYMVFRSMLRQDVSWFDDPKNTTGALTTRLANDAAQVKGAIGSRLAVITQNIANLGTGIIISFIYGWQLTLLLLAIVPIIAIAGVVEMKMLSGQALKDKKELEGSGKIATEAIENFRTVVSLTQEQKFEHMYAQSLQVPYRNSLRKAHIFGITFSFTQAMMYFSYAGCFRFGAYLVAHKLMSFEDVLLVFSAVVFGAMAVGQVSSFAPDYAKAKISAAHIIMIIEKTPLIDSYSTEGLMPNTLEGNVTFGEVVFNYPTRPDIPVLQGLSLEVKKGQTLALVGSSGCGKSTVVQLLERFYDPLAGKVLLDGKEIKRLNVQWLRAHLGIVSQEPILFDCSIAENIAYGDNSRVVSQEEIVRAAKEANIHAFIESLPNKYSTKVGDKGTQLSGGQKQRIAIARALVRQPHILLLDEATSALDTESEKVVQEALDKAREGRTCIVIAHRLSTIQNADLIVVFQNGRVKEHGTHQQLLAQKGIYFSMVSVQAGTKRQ

MDR1 (P-gp, ABCB1) = MDR1 (P-gp, ABCB1) (Homo sapiens, UniProt P08183); experiment: Activity at human MDR1 expressed in MDCK2 cells assessed as apical to basolateral mass balance at 3 uM by liquid scintillation counting analysis in presence of 3 uM P-gp and BCRP inhibitor GF120918; type: ADME, cell-based, MDCK-II; settings: with GF120918 (P-gp and BCRP inhibitor), read-out: Activity
Sequence of MDR1 (P-gp, ABCB1) (P08183 whole entry): as above

[4] = molecular target: UDP-glucuronosyltransferase 2B15 (Homo sapiens, UniProt P54855); experiment: Drug metabolism assessed as UDPGA-fortified human recombinant UGT2B15-mediated DTG glucuronide metabolite ((2S,3S,4S,5R,6S)-6-((4R,12aS)-9-(2,4-difluorobenzylcarbamoyl)-4-methyl-6,8-dioxo-3,4,6,8,12,12a-hexahydro-2H-[1,3]oxazino[3,2-d]pyrido[1,2-a]pyrazin-7-yloxy)-3,4,5-trihydroxytetrahydro-2H-pyran-2-carboxylic acid) formation at 16 uM after 120 mins by radio-HPLC analysis; type: ADME; settings: recombinant enzyme
Sequence of UDP-glucuronosyltransferase 2B15 (P54855 whole entry): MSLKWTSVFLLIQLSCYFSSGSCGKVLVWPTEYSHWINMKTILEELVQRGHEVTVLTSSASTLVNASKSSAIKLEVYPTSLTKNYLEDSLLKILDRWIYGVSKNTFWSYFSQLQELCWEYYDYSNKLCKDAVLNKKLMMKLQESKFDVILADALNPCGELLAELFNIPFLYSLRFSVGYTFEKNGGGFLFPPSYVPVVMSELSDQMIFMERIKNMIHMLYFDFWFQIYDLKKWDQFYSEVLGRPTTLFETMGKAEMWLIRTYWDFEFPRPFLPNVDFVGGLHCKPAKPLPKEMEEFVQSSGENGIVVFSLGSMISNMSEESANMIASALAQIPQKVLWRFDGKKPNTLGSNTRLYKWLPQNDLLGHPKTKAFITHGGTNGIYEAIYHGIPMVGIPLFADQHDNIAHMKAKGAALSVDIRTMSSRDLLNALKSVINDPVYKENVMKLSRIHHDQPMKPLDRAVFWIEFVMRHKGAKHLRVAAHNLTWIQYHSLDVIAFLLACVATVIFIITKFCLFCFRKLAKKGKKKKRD

Cytochrome P450 3A4 [5] = molecular target: T2, Cytochrome P450 3A4; experiment: Drug metabolism in supersomes expressing human recombinant CYP3A4 assessed as NADPH-fortified enzyme-mediated metabolite M3 ((4R,12aS)-N-((3,5-difluorophenyl)(hydroxy)methyl)-7-hydroxy-4-methyl-6,8-dioxo-3,4,6,8,12,12a-hexahydro-2H-[1,3]oxazino[3,2-d]pyrido[1,2-a]pyrazine-9-carboxamide) formation at 5 uM after 120 mins by radio-HPLC analysis in presence of selective CYP3A4 inhibitor azamulin; type: ADME
Cytochrome P450 2B6 = molecular target: T3, Cytochrome P450 2B6 (Homo sapiens, UniProt P20813); experiment: Inhibition of CYP2B6 in human liver microsomes using bupropion as substrate preincubated for 20 mins with substrate prior to initiation of reaction with NADPH by HPLC analysis; type: ADME
T3 sequence (P20813 whole entry): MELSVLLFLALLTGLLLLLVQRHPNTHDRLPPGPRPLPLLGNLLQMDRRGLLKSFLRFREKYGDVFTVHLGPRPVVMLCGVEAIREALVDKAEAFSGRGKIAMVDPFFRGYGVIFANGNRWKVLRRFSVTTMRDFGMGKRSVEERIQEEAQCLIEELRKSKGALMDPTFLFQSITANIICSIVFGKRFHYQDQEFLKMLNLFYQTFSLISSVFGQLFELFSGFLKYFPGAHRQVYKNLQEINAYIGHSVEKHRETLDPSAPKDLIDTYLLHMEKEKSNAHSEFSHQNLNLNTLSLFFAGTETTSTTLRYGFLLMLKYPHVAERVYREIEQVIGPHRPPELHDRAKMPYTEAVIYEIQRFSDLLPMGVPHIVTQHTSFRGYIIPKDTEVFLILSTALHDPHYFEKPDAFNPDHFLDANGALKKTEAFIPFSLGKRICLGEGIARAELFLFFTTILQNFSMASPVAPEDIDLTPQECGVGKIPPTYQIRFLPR

Cytochrome P450 2D6 = Cytochrome P450 2D6 (Homo sapiens, UniProt P10635); experiment: Inhibition of CYP2D6 in human liver microsomes using bufuralol as substrate preincubated for 20 mins with substrate prior to initiation of reaction with NADPH by HPLC analysis; type: ADME
Hepatocyte = experiment: Induction of CYP3A4 mRNA expression in human hepatocytes at 1 to 40 uM after 48 hrs by real time PCR analysis; type: ADME, cell-based
Liver microsome = experiment: Drug metabolism in NADPH-fortified human liver microsomes assessed as metabolite M3 ((4R,12aS)-N-((3,5-difluorophenyl)(hydroxy)methyl)-7-hydroxy-4-methyl-6,8-dioxo-3,4,6,8,12,12a-hexahydro-2H-[1,3]oxazino[3,2-d]pyrido[1,2-a]pyrazine-9-carboxamide) formation at 5 uM after 120 mins by radio-HPLC analysis; type: ADME
[6] = molecular target: Solute carrier family 22 member 2 (Homo sapiens, UniProt O15244); experiment: Inhibition of human OCT2 expressed in MDCK2 cells using [14C]metformin as substrate at 25 uM by liquid scintillation counting analysis; type: ADME, cell-based; settings: mdck-ii
Sequence of Solute carrier family 22 member 2 (O15244 whole entry): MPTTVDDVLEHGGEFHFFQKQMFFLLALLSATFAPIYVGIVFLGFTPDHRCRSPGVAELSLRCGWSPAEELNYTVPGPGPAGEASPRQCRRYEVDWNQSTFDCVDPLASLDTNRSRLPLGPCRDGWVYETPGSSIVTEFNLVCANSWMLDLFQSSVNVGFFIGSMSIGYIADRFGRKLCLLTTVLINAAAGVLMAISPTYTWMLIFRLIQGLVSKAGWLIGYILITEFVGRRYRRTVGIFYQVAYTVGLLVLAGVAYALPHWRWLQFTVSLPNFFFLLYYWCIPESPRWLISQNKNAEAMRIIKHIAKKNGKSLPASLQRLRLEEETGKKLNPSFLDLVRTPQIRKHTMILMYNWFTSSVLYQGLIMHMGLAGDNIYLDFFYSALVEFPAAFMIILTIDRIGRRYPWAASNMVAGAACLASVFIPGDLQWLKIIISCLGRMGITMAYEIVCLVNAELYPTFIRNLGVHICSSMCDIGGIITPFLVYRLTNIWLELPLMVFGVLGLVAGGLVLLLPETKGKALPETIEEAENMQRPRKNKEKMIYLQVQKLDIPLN

Cytochrome P450 1A2 = molecular target: T4, Cytochrome P450 1A2 (Homo sapiens, UniProt P05177); experiment: Inhibition of CYP1A2 in human liver microsomes using phenacetin as substrate preincubated for 20 mins with substrate prior to initiation of reaction with NADPH by HPLC analysis; type: ADME
T4 sequence (P05177 whole entry): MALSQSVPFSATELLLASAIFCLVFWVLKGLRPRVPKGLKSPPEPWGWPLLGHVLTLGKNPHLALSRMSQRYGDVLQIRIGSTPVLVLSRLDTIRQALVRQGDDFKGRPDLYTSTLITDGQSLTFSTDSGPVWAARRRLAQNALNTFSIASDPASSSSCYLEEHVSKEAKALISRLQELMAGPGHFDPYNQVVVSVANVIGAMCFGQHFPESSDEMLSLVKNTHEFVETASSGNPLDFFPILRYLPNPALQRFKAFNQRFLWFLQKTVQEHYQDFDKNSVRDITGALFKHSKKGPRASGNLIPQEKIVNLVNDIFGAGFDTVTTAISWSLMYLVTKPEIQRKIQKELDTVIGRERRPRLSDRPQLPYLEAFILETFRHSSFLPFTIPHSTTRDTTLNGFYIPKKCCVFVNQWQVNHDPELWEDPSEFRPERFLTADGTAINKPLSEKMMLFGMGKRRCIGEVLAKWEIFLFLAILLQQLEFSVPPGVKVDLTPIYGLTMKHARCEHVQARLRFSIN

## C[C@@H]1CCO[C@H]2Cn3cc(C(=O)NCc4ccc(F)cc4F)c(=O)c(O)c3C(=O)N12 [DOLUTEGRAVIR]
[1]
  inhibition (INH): 43%
Cytochrome P450 2A6
  IC50: > 100 µM
Cytochrome P450 3A4 [2]
  Drug metabolism: metabolite_detected
[3]
  IC50: > 90 µM
MDR1 (P-gp, ABCB1)
  recovery at 3 µM: 84%
[4]
  Drug metabolism: metabolite_not_detected
Cytochrome P450 3A4 [5]
  Drug metabolism: metabolite_not_detected
Cytochrome P450 2B6
  IC50: > 100 µM
Cytochrome P450 2D6
  IC50: > 100 µM
Hepatocyte
  Activity: Toxic
Liver microsome
  Drug metabolism: metabolite_detected
[6]
  inhibition (INH): 91%
Cytochrome P450 1A2
  IC50: > 100 µM
